# Values of other authors, collected in patent publication US20110207823A1, “12-HOUR SUSTAINED-RELEASE METOCLOPRAMIDE” (POSIVISIONARY SOLUTIONS LLP, priority 2008, published 2011).
# Details: immediate release dosages
compound,measurement,value
"CCN(CC)CCNC(=O)c1cc(Cl)c(N)cc1OC [metoclopramide, Metoclopramide]",metoclopramide peaks in plasma with undesirable side effects (akathisia),above 100 nanograms per milliliter
